Data from patent US9481648B2, “Kinase inhibitors” (Respivert Limited, priority 2013, dated 2016).

Assays:
p38 MAPKα (MAPK14) = p38 MAPKα (MAPK14) (Homo sapiens (Human), UniProt Q16539); test: p38 MAPKα enzyme inhibition (FRET, Z-LYTE; Method 2); assay type: biochemical
c-Src = c-Src (Homo sapiens (Human), UniProt P12931); test: c-Src enzyme inhibition (FRET, Z-LYTE); assay type: biochemical
Procedure, shortened: (§1)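 Syk or c-Src enzyme (3000 or 2000 ng/mL solutions) was preincubated 2 h at RT with compound solutions at 1, 0.1, 0.01 or 0.001 µg/mL. Z-LYTE FRET peptide (8 µM solution) and ATP (800 µM solution for c-Src, 60 µM for Syk) were then added for 1 h, followed by protease development for 1 h. Phosphorylation was read as the coumarin/fluorescein emission ratio.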

Syk = Syk (Homo sapiens (Human), UniProt P43405); test: Syk enzyme inhibition (FRET, Z-LYTE); assay type: biochemical
Procedure, shortened: as §1

GSK 3α = GSK 3α (Homo sapiens (Human), UniProt P49840); test: GSK 3α enzyme inhibition (FRET, Z-LYTE; Method 2); assay type: biochemical; settings: read-out: IC50 Values for Enzyme Inhibition GSK3α
Procedure, shortened: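 Z-LYTE FRET assay: GSK3-α (500 ng/mL stock) preincubated 105 min at RT with compound at 10, 1, 0.1 or 0.01 μg/mL stock. FRET peptide (8 μM stock) and ATP (40 μM stock) were then added for 1 h, followed by protease development for 1 h. Phosphorylation was read as coumarin/fluorescein emission ratio.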

[1] = tested on: β-catenin in d-U937 cells; test: Accumulation of β catenin in d-U937 cells (assay m); assay type: cell-based, human
Procedure, shortened: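 U937 cells were differentiated with PMA (100 ng/mL) for 48–72 hr, then treated with compound or vehicle for 18 hr. After formaldehyde fixation, β-catenin was detected with a primary antibody and an HRP secondary using TMB (OD450–655). Signal was normalised to crystal violet cell staining (OD595).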

Chain of p38 MAPKα (MAPK14) (Q16539 whole entry): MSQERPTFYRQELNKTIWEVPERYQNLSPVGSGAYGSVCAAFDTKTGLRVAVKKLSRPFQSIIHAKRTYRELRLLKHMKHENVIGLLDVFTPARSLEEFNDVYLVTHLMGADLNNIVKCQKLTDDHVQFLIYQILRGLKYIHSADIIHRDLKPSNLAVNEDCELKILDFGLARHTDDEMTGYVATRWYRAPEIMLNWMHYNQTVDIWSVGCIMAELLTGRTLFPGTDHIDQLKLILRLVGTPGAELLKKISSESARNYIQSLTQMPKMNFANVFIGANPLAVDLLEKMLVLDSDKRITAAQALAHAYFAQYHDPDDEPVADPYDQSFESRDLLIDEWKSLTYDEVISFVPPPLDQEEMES
Chain of GSK 3α (P49840 whole entry): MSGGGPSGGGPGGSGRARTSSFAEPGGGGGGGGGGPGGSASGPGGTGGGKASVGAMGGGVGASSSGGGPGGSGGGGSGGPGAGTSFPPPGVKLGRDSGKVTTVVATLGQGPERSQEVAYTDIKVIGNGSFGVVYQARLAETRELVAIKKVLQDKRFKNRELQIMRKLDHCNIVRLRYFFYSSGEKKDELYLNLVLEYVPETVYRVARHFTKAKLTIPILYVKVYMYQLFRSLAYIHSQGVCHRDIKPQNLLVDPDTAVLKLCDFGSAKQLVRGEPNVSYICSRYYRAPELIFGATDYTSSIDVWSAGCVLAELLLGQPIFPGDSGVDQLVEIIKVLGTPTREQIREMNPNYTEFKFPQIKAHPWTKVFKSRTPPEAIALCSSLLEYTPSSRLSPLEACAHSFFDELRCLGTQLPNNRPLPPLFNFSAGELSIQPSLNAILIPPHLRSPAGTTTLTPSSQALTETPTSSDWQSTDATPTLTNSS
Chain of c-Src (P12931 whole entry, looked up): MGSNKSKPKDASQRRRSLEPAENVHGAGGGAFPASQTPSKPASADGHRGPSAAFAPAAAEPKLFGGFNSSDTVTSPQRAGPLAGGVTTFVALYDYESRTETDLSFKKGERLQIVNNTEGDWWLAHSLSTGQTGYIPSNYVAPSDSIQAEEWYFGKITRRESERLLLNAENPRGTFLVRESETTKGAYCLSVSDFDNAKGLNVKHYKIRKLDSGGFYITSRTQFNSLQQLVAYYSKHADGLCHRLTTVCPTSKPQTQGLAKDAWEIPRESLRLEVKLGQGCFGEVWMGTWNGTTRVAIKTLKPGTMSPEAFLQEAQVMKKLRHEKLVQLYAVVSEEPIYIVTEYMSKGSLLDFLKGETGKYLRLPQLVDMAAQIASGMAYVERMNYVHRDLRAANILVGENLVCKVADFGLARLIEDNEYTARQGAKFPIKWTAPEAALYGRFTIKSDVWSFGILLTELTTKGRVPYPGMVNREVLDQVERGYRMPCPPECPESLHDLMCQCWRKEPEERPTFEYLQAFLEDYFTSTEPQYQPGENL

SMILES | IC50 (p38 MAPKα (MAPK14)) | IC50 (c-Src) | IC50 (Syk) | IC50 (GSK 3α) | % β-catenin induction ([1]; test compound 1 μg/mL) | % β-catenin induction ([1]; test compound 5 μg/mL) | % β-catenin induction ([1]; test compound 10 μg/mL)
C#Cc1cc(Nc2cc(Oc3ccc(NC(=O)Nc4cc(C(C)(C)C)cc(C(=O)NC)c4OC)c4ccccc34)ccn2)cc(C(=O)NCCN2CCOCC2)c1 [Example 39, 5-(tert-Butyl)-3-(3-(4-((2-((3-ethynyl-5-((2-morpholinoethyl)carbamoyl)phenyl)amino)-pyridin-4-yl)oxy)naphthalen-1-yl)ureido)-2-methoxy-N-methylbenzamide] | 140 nM | 29 nM | 571 nM | 1600 nM | −11% | −12% | −18%
COCCOCCOCCOc1cc(Nc2nccc(Oc3ccc(NC(=O)Nc4cc(C(C)(C)C)cc(C(=O)NC5COC5)c4OC)c4ccccc34)n2)cc(OC)c1 [Example 51, 5-(tert-Butyl)-2-methoxy-3-(3-(4-((2-((3-methoxy-5-(2-(2-(2-methoxyethoxy)ethoxy)-ethoxy)phenyl)amino)pyrimidin-4-yl)oxy)naphthalen-1-yl)ureido)-N-(oxetan-3-yl)-benzamide] | 170 nM | 15 nM | 49 nM | 977 nM | 3% | 33% | 29%
COCCOCCOCCOc1cc(Nc2nccc(Oc3ccc(NC(=O)Nc4cc(C(C)(C)C)cc(C(=O)NCCN(C)C)c4OC)c4ccccc34)n2)cc(OC)c1 [Example 46, 5-(tert-Butyl)-N-(2-(dimethylamino)ethyl)-2-methoxy-3-(3-(4-((2-((3-methoxy-5-(2-(2-(2-methoxyethoxy)ethoxy)ethoxyl)phenyl)amino)pyrimidin-4-yl)oxy)naphthalen-1-yl)ureido)-benzamide] | 110 nM | 15 nM | 20 nM | 636 nM | −2% | 2% | −29%
COCCOCCOCCOCCOCCOCCOCCOc1cc(Nc2cc(Oc3ccc(NC(=O)Nc4cc(C(C)(C)C)cc(NS(C)(=O)=O)c4OC)c4ccccc34)ccn2)cc(OC)c1 [Example 45, N-(3-(3-(4-((2-((3-(2,5,8,11,14,17,20-Heptaoxadocosan-22-yloxy)-5-methoxyphenyl)-amino)pyridin-4-yl)oxy)naphthalen-1-yl)ureido)-5-(tert-butyl)-2-methoxyphenyl)methanesulfonamide] | 145 nM | 39 nM | 455 nM | 2160 nM | −4% | −7% | −14%
COCCOCCOCCOc1cc(Nc2nccc(Oc3ccc(NC(=O)Nc4cc(C(C)(C)C)cc(C(N)=O)c4OC)c4ccccc34)n2)cc(OC)c1 [Example 20, 5-(tert-Butyl)-2-methoxy-3-(3-(4-((2-((3-methoxy-5-(2-(2-(2-methoxyethoxy)ethoxy)-ethoxy)phenyl)amino)pyrimidin-4-yl)oxy)naphthalen-1-yl)ureido)benzamide] | 33 nM | 6 nM | 29 nM | 748 nM | 4% | 31% | 29%
C#Cc1cc(Nc2cc(Oc3ccc(NC(=O)Nc4cc(NS(C)(=O)=O)cc(C(C)(C)C)c4)c4ccccc34)ccn2)cc(C(=O)NCCN2CCOCC2)c1 [Example 65, 3-((4-((4-(3-(3-(tert-Butyl)-5-(methylsulfonamido)phenyl)ureido)naphthalen-1-yl)oxy)-pyridin-2-yl)amino)-5-ethynyl-N-(2-morpholinoethyl)benzamide] | 326 nM | 85 nM | 1290 nM | 7400 nM | 5% | 2% | 6%
C#Cc1cc(Nc2cc(Oc3ccc(NC(=O)Nc4cc(C(C)(C)C)cc(NS(C)(=O)=O)c4OC)c4ccccc34)ccn2)cc(C(=O)NCCN2CCOCC2)c1 [Example 49, 3-((4-((4-(3-(5-(tert-Butyl)-2-methoxy-3-methylsulfonamido)phenyl)ureido)naphthalen-1-yl)oxy)pyridin-2-yl)amino-5-ethynyl-N-(2-morpholinoethyl)benzamide] | 258 nM | 56 nM | 1220 nM | 8360 nM | −1% | −2% | −5%
COc1cc(Nc2nccc(Oc3ccc(NC(=O)Nc4cc(C(C)(C)C)cc(NS(C)(=O)=O)c4OC)c4ccccc34)n2)cc(OCCOCCOCCN2CCOCC2)c1 [Example 18, N-(5-(tert-Butyl)-2-methoxy-3-(3-(4-((2-((3-methoxy-5-(2-(2-(2-mormholinoethoxy)ethoxy)-ethoxy)phenyl)amino)pyrimidin-4-yl)oxy)naphthalen-1-yl)ureido)phenyl)methanesulfonamide] | 52 nM | 10 nM | 76 nM | 3120 nM | 1% | 9% | 17%
COCCOCCOc1cc(Nc2nccc(Oc3ccc(NC(=O)Nc4cc(C(C)(C)C)cc(NS(C)(=O)=O)c4OC)c4ccccc34)n2)cc(OC)c1 [Example 36, N-(5-(tert-Butyl)-2-methoxy-3-(3-(4-((2-((3-methoxy-5-(2-(2-methoxyethoxy)ethoxy)-phenyl)amino)pyrimidin-4-yl)oxy)naphthalen-1-yl)ureido)phenyl)methanesulfonamide] | 69 nM | 16 nM | 67 nM | 2090 nM | −4% | 28% | 18%
CCOc1c(NC(=O)Nc2ccc(Oc3ccnc(Nc4cc(OC)cc(OCCOCCOCCOC)c4)n3)c3ccccc23)cc(C(C)(C)C)cc1NS(C)(=O)=O [Example 69] | 147 nM | 13 nM | 121 nM | 1530 nM | 10% | 17% | 25%
COCCOCCOCCOc1cc(Nc2nccc(Oc3ccc(NC(=O)Nc4cc(C(C)(C)C)cc(NS(C)(=O)=O)c4OC)c4ccccc34)n2)cc(OC)c1Cl [Example 58, N-(5-(tert-Butyl)-3-(3-(4-((2-((4-chloro-3-methoxy-5-(2-(2-(2-methoxyethoxy)ethoxy)ethoxy)-phenyl)amino)pyrimidin-4-yl)oxy)naphthalen-1-yl)ureido)-2-methoxyphenyl)-methanesulfonamide] | 181 nM | 48 nM | 461 nM | 4340 nM | 5% | 2% | 10%
COCCOCCOCCOc1cc(Nc2nccc(Oc3ccc(NC(=O)Nc4cc(C(C)(C)C)cc(-c5nnco5)c4OC)c4ccccc34)n2)cc(OC)c1 [Example 59, 1-(5-(tert-Butyl)-2-methoxy-3-(1,3,4-oxadiazol-2-yl)phenyl)-3-(4-((2-((3-methoxy-5-(2-(2-(2-methoxyethoxy)ethoxy)ethoxy)phenyl)amino)pyrimidin-4-yl)oxy)naphthalen-1-yl)urea] | 132 nM | 28 nM | 128 nM | 978 nM | 14% | 33% | 28%
C#Cc1cc(Nc2cc(Oc3ccc(NC(=O)Nc4cc(C(C)(C)C)cc(NS(C)(=O)=O)c4OC)c4ccccc34)ccn2)cc(C(=O)NCCOCCOCCOC)c1 [Example 54] | 140 nM | 42 nM | 1190 nM | 11900 nM | 5% | 5% | −2%
COCCOCCOCCOc1cc(Nc2nccc(Oc3ccc(NC(=O)Nc4cc(NS(C)(=O)=O)cc(C(C)(C)C)c4)c4ccccc34)n2)cc(OC)c1 [Example 24, N-(3-(tert-Butyl)-5-(3-(4-((2-((3-methoxy-5-(2-(2-(2-methoxyethoxy)ethoxy)ethoxy)-phenyl)amino)pyrimidin-4-yl)oxy)naphthalen-1-yl)ureido)phenyl)methanesulfonamide] | 30 nM | 14 nM | 549 nM | 680 nM | −3% | 27% | 25%
COCCOCCOCCOc1cc(Nc2nccc(Oc3ccc(NC(=O)Nc4cc(C(C)(C)C)cc(NS(C)(=O)=O)c4OC)c4ccccc34)n2)cc(OC(F)F)c1 [Example 17, N-(5-(tert-Butyl)-3-(3-(4-((2-((3-(difluoromethoxy)-5-(2-(2-(2-methoxyethoxy)ethoxy)-ethoxy)phenyl)amino)pyrimidin-4-yl)oxy)naphthalen-1-yl)ureido)-2-methoxyphenyl)-methanesulfonamide] | 179 nM | 40 nM | 149 nM | 5460 nM | 5% | 23% | 23%
